# Assay results: patent US11096885B2, “Composition for enhancing skin elasticity or improving skin wrinkles comprising ginseng cell lysate” (AMOREPACIFIC CORPORATION, priority 2018, dated 2021)
# Test system: MMP-1
# Test: MMP-1 ELISA assay: inhibition of MMP-1 production in UVB-irradiated human skin fibroblasts
# Assay type: cell-based
# Settings: HS68 cells; for MMP-1 (%): untreated control = 100, UVB group = 463.00
# Procedure: The MMP-1 ELISA assay was performed to confirm the effect of the composition of Example 1 and Comparative Example 1 on the inhibition of MMP-1 production, which is a skin tissue degrading enzyme, in UVB-irradiated human skin fibroblasts.
# Specifically, HS68 cells, which are human skin fibroblasts, were seeded in a 48-well plate at a concentration of 2×10^4 cells/well, and then cultured in a DMEM medium (WelGene) containing 10% fetal bovine serum (FBS, WelGene) and 1% penicillin/streptomycin under a condition of 37° C. and 5% CO2. Then, the medium was removed and washed with DPBS (Dulbecco's Phosphate-Buffered Saline). Then, the cells from Example 1 and Comparative Example 1 diluted by concentration (125 ppm, 250 ppm, 500 ppm) in a DMEM medium containing no fetal bovine serum (FBS) and pretreated for 6 hours. Then, the medium was removed and was filled with 100 μl of DPBS, and then was irradiated at UVB 30 mJ/cm^2. The cells from Example 1 and Comparative Example 1 were diluted by concentration (250 ppm, 500 ppm) in a DMEM medium containing no fetal bovine serum (FBS), treated and cultured for 48 hours. After collecting the medium of the cultured cells, the amount of MMP-1 secretion was measured using a human MMP-1 ELISA kit (R&D Systems), and the absorbance was measured at 450 nm using an ELISA reader (Infinite M200Pro, Tecan). The cells attached to the bottom of the plate were washed with DPBS, lysed with 1N NaOH, and the amount of protein was measured using a BCA assay (Pierce® BCA protein assay kit, Thermo Scientific). The amount of MMP-1 secretion per certain protein was corrected and expressed as a percentage (%). As a positive control group, 1 μM and 10 μM of retinoic acid (RA) were used. Statistical significance between samples was used by the student's t-test and was analyzed to be statistically significant when the p-value was 0.05 or less (* P<0.05, ** p<0.01, *** p<0.001).
smiles,measurement,setting,value
"CC1=C(/C=C/C(C)=C/C=C/C(C)=C/C(=O)O)C(C)(C)CCC1 [RA, retinoic acid]",reduction of MMP-1 secretion as compared to the UVB irradiation group,"UVB 30 mJ/cm^2, 1 μM",111.06%
same,MMP-1 (%),"UVB 30 mJ/cm^2, 1 μM",351.95 ± 22.95%
same,reduction of MMP-1 secretion as compared to the UVB irradiation group,"UVB 30 mJ/cm^2, 10 μM",239.71%
same,MMP-1 (%),"UVB 30 mJ/cm^2, 10 μM",223.29 ± 114.85%
